{"source": "patent US20070066587A1", "about": "“Substituted azetidine compounds, their preparation and use as medicaments” (LABORATORIOS DEL DR. ESTEVE S.A, priority 2004, published 2007)", "assay_type_in_all_cases": "in vivo", "key": {"Male NMRI mice [1]": {"test_system": "Male NMRI mice", "assay": "Mouse tetrad model, hypothermia, antagonistic effect against Win 55212-2", "conditions": "5 mg/kg i.v. prior to Win 55212-2 1.25 mg/kg i.v.", "description": "(§1) Substances with affinity for cannabinoid receptors are known to produce a wide range of pharmacological effects. It is also known that intravenous administration of a substance with affinity for cannabinoid receptors in mice produces analgesia, hypothermia, sedation and catalepsy. Individually, none of these effects can be considered as proof that a tested substance has affinity for cannabinoid-receptors, since all of these effects are common for various classes of centrally active agents. However, substances, which show all of these effects, i.e. substances that are active in this so-called tetrad model are considered to have affinity for the cannabinoid receptors. It has further been shown that cannabinoid receptor antagonists are higly effective in blocking the effects of a cannabinoid agonist in the mouse tetrad model.\n(§2) The tetrad model is described, for example, in the publication of A. C. Howlett et al, International Union of Pharmacology XXVII. […]\n(§3) Before testing in the behavioral procedures given below, mice are acclimatized to the experimental setting. Pre-Treatment control values are determined for analgesia hot plate latency (in seconds), rectal temperature, sedation and catalepsy.\n(§4) In order to determine the antagonistic activity the identical procedure is used as for the determination of the agonistic effects, but with the difference that the substance to be evaluated for its antagonistic activity is injectected 5 minutes before the intravenous injection of 1.25 mg/kg Win-55,212 a known cannabinoid-receptor agonist.\nHypothermia is determined according to the method described in David R. Compton et al. “In-vivo Characterization of a Specific Cannabinoid Receptor Antagonist (SR141716A) Inhibition of Tetrahydrocannbinol-induced Responses and Apparent Agonist Activity”, J. Pharmacol Exp Ther. 277, 2, 586-594, 1996. […]\nThe base-line rectal temperatures are determined with a thermometer (Yello Springs Instruments Co., Panlabs) and a thermistor probe inserted to 25 mm before the administration of the substance to be tested. […]"}, "Male NMRI mice [2]": {"test_system": "Male NMRI mice", "assay": "Mouse tetrad model, catalepsy, agonistic effect", "conditions": "5 mg/kg i.v., 20 minutes after injection", "description": "as §1\n(§5) The tetrad model is described, for example, in the publication of A. C. Howlett et al, International Union of Pharmacology XXVII. Classification of Cannabinoid Receptors, Pharmacol Rev 54, 161-202, 2002 and David R. Compton et al., “In-vivo Characterization of a Specific Cannabinoid Receptor Antagonist (SR141716A): Inhibition of Tetrahydrocannbinol-induced Responses and Apparent Agonist Activity”, J. Pharmacol. Exp. Ther. 277 , 2, 586-594, 1996. The corresponding parts of the description are hereby incorporated by reference.\n(§6) Male NMRI mice with a weight of 20-30 g (Harlan, Barcelona, Spain) are used in all of the following experiments.\nas §3\n(§7) In order to determine the agonistic activty of the substance to be tested, the mice are injected intravenously with the substance to be tested or the vehicle alone. 15 minutes after injection, latency in hot plate analgesia is measured. Rectal temperature, sedation and catalepsy are measured 20 minutes after injection.\nCatalepsy is determined according to the method described in Alpermann H. G. et al. “Pharmacological effets of Hoe 249: A new potential antidepressant”, Drugs Dev. Res. 25, 267-282. 1992. The respective description is hereby incorporated by reference and forms part of the present disclosure.\nThe cataleptic effect of the substance to be tested is evaluated according to the duration of catalepsy, whereby the animals are placed head downwards with their kinlegs upon the top of the wooden block.\nThe chosen scoring system is:\nThe percentage of catalepsy is determined according ot the following formula: % Catalepsy=arithmetic mean/6×100"}, "Male NMRI mice [3]": {"test_system": "Male NMRI mice", "assay": "Mouse tetrad model, hypothermia, agonistic effect", "conditions": "5 mg/kg i.v., 20 minutes after injection", "description": "as §1, §5, §6, §3, §7\nHypothermia is determined according to the method described in David R. Compton et al. “In-vivo Characterization of a Specific Cannabinoid Receptor Antagonist (SR141716A) Inhibition of Tetrahydrocannbinol-induced Responses and Apparent Agonist Activity”, J. Pharmacol Exp Ther. 277, 2, 586-594, 1996. The respective description is hereby incorporated by reference and forms part of the present disclosure.\nThe base-line rectal temperatures are determined with a thermometer (Yello Springs Instruments Co., Panlabs) and a thermistor probe inserted to 25 mm before the administration of the substance to be tested. Rectal temperature is again measured 20 minutes after the administration of the substances to be tested. The temperature difference is calculated for each animal, whereby differences of ≧−2° C. are considered to represent activity."}, "Male NMRI mice [4]": {"test_system": "Male NMRI mice", "assay": "Mouse tetrad model, hot plate analgesia, agonistic effect", "conditions": "5 mg/kg i.v., 15 minutes after injection", "description": "as §1, §2, §3, §7\nThe hot plate analgesia is determined according to the method described in Woolfe D. et al. “The evaluation of analgesic action of pethidine hydrochloride (Demerol)”, J. Pharmacol. Exp. Ther. 80, 300-307, 1944. […]\nThe mice are placed on a hot plate (Harvard Analgesimeter) at 55±0.5° C. until they show a painful sensation by licking their paws or jumping and the time for these sensations to occur is recorded. This reading is considered the basal value (B). […]\nThe degree of analgesia is calculated from the formula: % MPE of Analgesia=(PT-B)/(PC-B)×100 MPE=Maximum possible effect."}, "Male NMRI mice [5]": {"test_system": "Male NMRI mice", "assay": "Mouse tetrad model, sedation, agonistic effect", "conditions": "5 mg/kg i.v., 20 minutes after injection", "description": "as §1, §5, §6, §3, §7\nDetermination of Sedation and Ataxia\nSedation and ataxia is determined according to the method described in Desmet L. K. C. et al. “Anticonvulsive properties of Cinarizine and Flunarizine in Rats and Mice”, Arzneim.-Forsch. (Frug Res) 25, 9, 1975. The respective description is hereby incorporated by reference and forms part of the present disclosure.\nThe chosen scoring system is\n2: obvious calmness and quiet;\nprior to as well as after treatment.\n(§8) The percentage of sedation is determined according to the formula: % of sedation=arithmetic mean/3×100"}, "Male NMRI mice [6]": {"test_system": "Male NMRI mice", "assay": "Mouse tetrad model, sedation, antagonistic effect against Win 55212-2", "conditions": "5 mg/kg i.v. prior to Win 55212-2 1.25 mg/kg i.v.", "description": "as §1, with “It has further been shown that cannabinoid receptor antagonists are higly effective in blocking the effects of a cannabinoid agonist in the mouse tetrad model.” left out\nas §3\nas §4, with “agonist. […]” for “agonist.”\nas §8"}}, "data": [{"compound": "C[C@H]1[C@H](NS(=O)(=O)c2ccc(F)cc2)CN1C(c1ccc(Cl)cc1)c1ccc(Cl)cc1", "note": "[Example 5, N-{(2S,3R)-1-[Bis-(4-chloro-phenyl)-methyl]-2-methyl-azetidin-3-yl}-4-fluoro-benzenesulfonamide]", "values": [{"measurement": "Antagonistic Effect B: Hypothermia", "setting": "Male NMRI mice [1]", "result": 100}, {"measurement": "Agonistic effect C: Catalepsy", "setting": "Male NMRI mice [2]", "result": 0}, {"measurement": "Agonistic effect B: Hypothermia", "setting": "Male NMRI mice [3]", "result": 0}, {"measurement": "Agonistic effect A: Hot-Plate test", "setting": "Male NMRI mice [4]", "result": 2}, {"measurement": "Agonistic effect D: Sedation", "setting": "Male NMRI mice [5]", "result": 0}]}, {"compound": "C[C@H]1[C@H](NS(=O)(=O)c2cccs2)CN1C(c1ccc(Cl)cc1)c1ccc(Cl)cc1", "note": "[Example 6, Thiophene-2-sulfonic acid {(2S,3R)-1-[bis-(4-chloro-phenyl)-methyl]-2-methyl-azetidin-3-yl}-amide]", "values": [{"measurement": "Agonistic effect C: Catalepsy", "setting": "Male NMRI mice [2]", "result": 0}, {"measurement": "Agonistic effect B: Hypothermia", "setting": "Male NMRI mice [3]", "result": 0}, {"measurement": "Agonistic effect A: Hot-Plate test", "setting": "Male NMRI mice [4]", "result": 0}, {"measurement": "Agonistic effect D: Sedation", "setting": "Male NMRI mice [5]", "result": 0}]}, {"compound": "C[C@@H]1[C@@H](OS(=O)(=O)c2ccc(F)cc2)CN1C(c1ccc(Cl)cc1)c1ccc(Cl)cc1", "note": "(relative stereo) [Example 1, 4-Fluoro-benzenesulfonic acid 1-[trans-bis-(4-chloro-phenyl)-methyl]-2-methyl-azetidin-3-yl ester]", "values": [{"measurement": "Antagonistic Effect B: Hypothermia", "setting": "Male NMRI mice [1]", "result": 100}, {"measurement": "Agonistic effect C: Catalepsy", "setting": "Male NMRI mice [2]", "result": 0}, {"measurement": "Agonistic effect B: Hypothermia", "setting": "Male NMRI mice [3]", "result": 0}, {"measurement": "Agonistic effect A: Hot-Plate test", "setting": "Male NMRI mice [4]", "result": 5}, {"measurement": "Agonistic effect D: Sedation", "setting": "Male NMRI mice [5]", "result": 0}, {"measurement": "Antagonistic Effect D: Sedation", "setting": "Male NMRI mice [6]", "result": 20}]}, {"compound": "C[C@@H]1[C@@H](NS(=O)(=O)c2ccc(S(C)(=O)=O)cc2)CN1C(c1ccc(Cl)cc1)c1ccc(Cl)cc1", "note": "(relative stereo) [Example 14, N-{trans-1-[Bis-(4-chloro-phenyl)-methyl]-2-methyl-azetidin-3-yl}-4-methylsulfonyl-benzenesulfonamide]", "values": [{"measurement": "Agonistic effect C: Catalepsy", "setting": "Male NMRI mice [2]", "result": 0}, {"measurement": "Agonistic effect B: Hypothermia", "setting": "Male NMRI mice [3]", "result": 0}, {"measurement": "Agonistic effect D: Sedation", "setting": "Male NMRI mice [5]", "result": 0}, {"measurement": "Antagonistic Effect D: Sedation", "setting": "Male NMRI mice [6]", "result": 9}]}, {"compound": "C[C@@H]1[C@@H](NS(=O)(=O)c2cccc3nsnc23)CN1C(c1ccc(Cl)cc1)c1ccc(Cl)cc1", "note": "(relative stereo) [Example 15, 2,1,3-Benzothiadiazole-4-sulfonic acid {trans-1-[bis-(4-chloro-phenyl)-methyl]-2-methyl-azetidin-3-yl}-amide]", "values": [{"measurement": "Antagonistic Effect B: Hypothermia", "setting": "Male NMRI mice [1]", "result": 100}, {"measurement": "Agonistic effect C: Catalepsy", "setting": "Male NMRI mice [2]", "result": 0}, {"measurement": "Agonistic effect B: Hypothermia", "setting": "Male NMRI mice [3]", "result": 0}, {"measurement": "Agonistic effect D: Sedation", "setting": "Male NMRI mice [5]", "result": 0}]}]}
